Reference: US20240398793A1, “Methods of Treating Lymphedema” (Celltaxis, LLC, priority 2021, published 2024)
Where two headings read alike, the source gives them in different places.

Tests used:
LTA4H aminopeptidase = LTA4H aminopeptidase (Homo sapiens (Human), UniProt P09960); details: Bhatt et al. (2017); read-out: LTA4H aminopeptidase potency; cited from earlier work
[1] = Long-term animal safety studies; format: in vivo, animals
[2] = Human pharmacokinetics after oral administration; format: in vivo; details: for half-life / Tmax: human, plasma; for half-life: oral, read-out: T1/2 (elimination half-life); for Tmax: po
[3] = Clinical safety and tolerability
LTB4 production in blood = assay: Human pharmacodynamic studies, inhibition of LTB4 production in blood; format: in vivo
[4] = Nonclinical pharmacokinetics and mass balance studies; format: in vivo, animals
[5] = test system: LTB4 production in human whole blood; assay: LTB4 production in ex vivo stimulated human whole blood; format: cell-based
From the text: The IC50 of LTA4H epoxide hydrolase activity can be measured using methods known in the art, for example, using the LTA4 hydrolase homogenous time resolved fluorescence assay which is described, for example, in U.S. Pat. Nos. 7,737,145 and 10,202,362; the contents of which are expressly incorporated by reference herein. The hydrolase-homogeneous time resolved fluorescence assay is a two-step assay that measures the hydrolysis of LTA4 to LTB4 by analyzing the amount of LTB4 produced. The first step involves the enzymatic conversion of LTA4 to LTB4 and the second step involves the quantification of the LTB4 formed with a homogeneous time resolved fluorescence assay. LTA4H epoxide hydrolase activity can also be measured in a whole blood assay, for example, using human whole blood, using the method described in Penning, T. D. et al., J. Med. Chem. (2000), 43 (4): 721-735 and U.S. Pat. No. 7,737,145; the contents of each of which are expressly incorporated by reference herein. In the whole blood assay, the inhibitor compounds are tested for their ability to inhibit LTB4 release upon stimulation with calcium ionophore and the LTB4 levels in supernatants are measured by ELISA. LTA4H epoxide hydrolase activity can also be measured according to the method described in Low et al. (2017). […]

P-glycoprotein (P-gp) = P-glycoprotein (P-gp) (Homo sapiens (Human), UniProt P08183); assay: In vitro drug interaction study, P-gp; format: in vitro ADME
P-glycoprotein (P-gp), sequence (P08183 whole entry): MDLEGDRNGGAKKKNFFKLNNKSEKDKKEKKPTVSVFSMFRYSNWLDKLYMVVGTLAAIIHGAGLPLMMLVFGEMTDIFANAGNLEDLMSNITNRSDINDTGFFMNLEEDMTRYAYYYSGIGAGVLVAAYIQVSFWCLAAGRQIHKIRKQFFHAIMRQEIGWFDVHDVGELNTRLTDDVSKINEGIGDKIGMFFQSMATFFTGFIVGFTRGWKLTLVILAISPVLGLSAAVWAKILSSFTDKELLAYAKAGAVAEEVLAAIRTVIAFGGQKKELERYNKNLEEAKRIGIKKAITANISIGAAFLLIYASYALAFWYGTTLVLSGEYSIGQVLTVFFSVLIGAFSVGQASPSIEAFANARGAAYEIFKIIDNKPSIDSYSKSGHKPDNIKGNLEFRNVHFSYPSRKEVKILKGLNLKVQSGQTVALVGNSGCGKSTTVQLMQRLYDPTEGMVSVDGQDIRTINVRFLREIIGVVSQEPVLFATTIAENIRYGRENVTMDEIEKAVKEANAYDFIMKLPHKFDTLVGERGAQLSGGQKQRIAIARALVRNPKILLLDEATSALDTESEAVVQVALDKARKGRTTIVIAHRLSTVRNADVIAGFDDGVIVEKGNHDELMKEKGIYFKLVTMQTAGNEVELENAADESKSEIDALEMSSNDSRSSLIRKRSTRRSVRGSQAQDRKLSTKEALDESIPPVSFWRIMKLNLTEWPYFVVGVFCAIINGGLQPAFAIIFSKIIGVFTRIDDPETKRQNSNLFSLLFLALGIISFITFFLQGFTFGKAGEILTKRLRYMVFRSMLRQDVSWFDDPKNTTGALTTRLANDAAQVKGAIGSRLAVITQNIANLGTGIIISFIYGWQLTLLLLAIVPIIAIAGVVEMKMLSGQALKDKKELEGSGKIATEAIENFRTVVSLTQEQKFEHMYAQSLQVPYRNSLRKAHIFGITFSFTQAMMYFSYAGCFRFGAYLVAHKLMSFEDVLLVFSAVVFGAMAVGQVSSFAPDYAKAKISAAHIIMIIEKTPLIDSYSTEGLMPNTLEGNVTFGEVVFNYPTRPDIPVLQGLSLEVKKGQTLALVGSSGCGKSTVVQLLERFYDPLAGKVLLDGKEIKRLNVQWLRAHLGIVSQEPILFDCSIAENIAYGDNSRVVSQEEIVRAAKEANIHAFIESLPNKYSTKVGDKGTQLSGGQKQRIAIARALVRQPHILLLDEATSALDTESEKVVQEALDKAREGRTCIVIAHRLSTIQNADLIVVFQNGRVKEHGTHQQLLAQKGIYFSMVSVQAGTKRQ

[6] = Serious adverse reactions, Phase 2 Acebilustat safety population; format: in vivo, human; details: Phase 2, N = 217
From the text: SARs reported in the completed Phase 2 studies and suspected to be potentially related to drug treatment are tabulated below.

LTA4H epoxide hydrolase = LTA4H epoxide hydrolase (Homo sapiens (Human), UniProt P09960); assay: LTA4H epoxide hydrolase enzymatic activity (LTB4 production) in vitro; format: biochemical; details: read-out: IC50, LTA4H-mediated production of LTB4
LTA4H epoxide hydrolase, sequence (P09960 whole entry): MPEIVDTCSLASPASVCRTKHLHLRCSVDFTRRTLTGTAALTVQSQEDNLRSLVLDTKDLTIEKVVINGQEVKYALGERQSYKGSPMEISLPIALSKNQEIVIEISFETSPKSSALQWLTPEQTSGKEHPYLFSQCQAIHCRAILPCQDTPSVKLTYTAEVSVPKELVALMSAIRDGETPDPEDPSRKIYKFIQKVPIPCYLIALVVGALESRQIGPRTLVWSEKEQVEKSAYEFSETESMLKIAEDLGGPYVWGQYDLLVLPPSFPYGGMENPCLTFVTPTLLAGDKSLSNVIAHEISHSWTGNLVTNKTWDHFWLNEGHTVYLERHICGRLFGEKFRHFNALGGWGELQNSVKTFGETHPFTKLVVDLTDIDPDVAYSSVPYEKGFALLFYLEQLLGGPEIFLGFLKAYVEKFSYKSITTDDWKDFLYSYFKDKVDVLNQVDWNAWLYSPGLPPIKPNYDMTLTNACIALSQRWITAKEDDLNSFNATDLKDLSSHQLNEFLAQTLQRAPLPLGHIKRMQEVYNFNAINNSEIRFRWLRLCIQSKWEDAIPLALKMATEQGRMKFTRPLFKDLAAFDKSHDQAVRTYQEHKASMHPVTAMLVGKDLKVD
Procedure: The hydrolase-homogeneous time resolved fluorescence assay is a two-step assay that measures the hydrolysis of LTA4 to LTB4 by analyzing the amount of LTB4 produced. The first step involves the enzymatic conversion of LTA4 to LTB4 and the second step involves the quantification of the LTB4 formed with a homogeneous time resolved fluorescence assay. […] In the whole blood assay, the inhibitor compounds are tested for their ability to inhibit LTB4 release upon stimulation with calcium ionophore and the LTB4 levels in supernatants are measured by ELISA.

LTA4H aminopeptidase, sequence (P09960 whole entry): as above

SMILES: O=C(O)c1ccc(CN2C[C@@H]3C[C@H]2CN3Cc2ccc(Oc3ccc(-c4ncco4)cc3)cc2)cc1 [Acebilustat, 4-{[(1S,4S)-5-({4-[4-oxazol-2-yl-phenoxy]phenyl}methyl)-2,5-diazabicyclo[2.2.1]heptan-2-yl]methyl}benzoic acid]
- IC50 (LTA4H aminopeptidase): 27 nM
- ophthalmologic changes ([1]; long term safety studies): no evidence for ophthalmologic changes
- dose limiting toxicity ([1]; long-term animal safety studies across species): failure to gain weight associated with reduced food consumption
- half-life ([2]; CF patients): 8 to 9 h
- half-life ([2]; healthy volunteers): 15 to 18 h
- Tmax ([2]; humans, fasting): ~1.5 h
- Tmax ([2]; humans, with a high-fat meal): 5 to 6 h
- exposures (Cmax, AUC), healthy volunteers versus CF patients ([2]; humans): did not vary appreciably
- time to steady state exposure ([2]; humans, repeated dosing): 7 days
- effect of larger body size and concomitant CFTR modulator therapies on clearance ([2]; population PK, Phase 2 CF trial): increase clearance
- tolerability ([3]; CF patients, 50 mg and 100 mg per day for 48 weeks): generally well tolerated
- serious adverse reactions (SARs) ([3]; Phase 1 studies, healthy volunteers or subjects with CF): No SARs were reported
- safety and tolerability ([3]; across six clinical studies, 5 to 200 mg): generally safe and well tolerated
- circulating neutrophil counts or sputum microbiology ([3]; clinical studies): did not alter
- headache considered to be related to Acebilustat ([3]; clinical studies): 8%
- tolerability ([3]; healthy volunteers, once-daily oral up to 200 mg/day for 14 days): well tolerated
- inhibition at 50 mg (LTB4 production in blood; 50 mg dose, human pharmacodynamic studies): ≥ 63%
- inhibition at 100 mg (LTB4 production in blood; 100 mg dose, human pharmacodynamic studies): ≥ 74%
- inhibition at 150 mg (LTB4 production in blood; 150 mg dose, human pharmacodynamic studies): ≥ 82%
- inhibition at 200 mg (LTB4 production in blood; 200 mg dose, human pharmacodynamic studies): ≥ 85%
- EC50 (LTB4 production in blood; Homo sapiens, in vivo, humans, estimated): 0.093 µg/mL
- EC50 (LTB4 production in blood; human clinical PD studies, blood): 190 nM
- EC50 for inhibition of LTB4 production (LTB4 production in blood; in vivo, humans, estimated): 0.093 µg/mL
- engagement of the pharmacologic mechanism in blood over 24-hour dosing interval (LTB4 production in blood; once-daily oral doses of 50 mg and above, phase 1 studies): significant engagement of the pharmacologic mechanism
- accumulation and retention in pigmented tissues (uveal tract) ([4]; mass balance studies in animals): some potential for accumulation and retention
- route of elimination ([4]; nonclinical): primarily via liver-bile-feces
- total drug excreted via kidneys ([4]; nonclinical): less than 3%
- IC50 ([5]; ex vivo stimulated human whole blood): 64 nM
- IC50 ([5]; human whole blood tested ex vivo, approximate): ~0.0308 µg/mL
- drug interactions with substrates of P-gp (P-glycoprotein (P-gp)): potential for drug interactions
- SAR Distal intestinal obstruction syndrome, # of Subjects [6]: 1
- SAR Distal intestinal obstruction syndrome, Frequency [6]: 0.5%
- SAR Distal intestinal obstruction syndrome, Intensity Mild [6]: 0
- SAR Distal intestinal obstruction syndrome, Intensity Moderate [6]: 0
- SAR Distal intestinal obstruction syndrome, Intensity Severe [6]: 1
- SAR Drug Induced Liver Injury, # of Subjects [6]: 1
- SAR Drug Induced Liver Injury, Frequency [6]: 0.5%
- SAR Drug Induced Liver Injury, Intensity Mild [6]: 0
- SAR Drug Induced Liver Injury, Intensity Moderate [6]: 0
- SAR Drug Induced Liver Injury, Intensity Severe [6]: 1
- SAR Gastrointestinal disorders, # of Subjects [6]: 1
- SAR Gastrointestinal disorders, Frequency [6]: 0.5%
- SAR Gastrointestinal disorders, Intensity Mild [6]: 0
- SAR Gastrointestinal disorders, Intensity Moderate [6]: 0
- SAR Gastrointestinal disorders, Intensity Severe [6]: 1
- SAR Hepatobiliary Disorders, # of Subjects [6]: 1
- SAR Hepatobiliary Disorders, Frequency [6]: 0.5%
- SAR Hepatobiliary Disorders, Intensity Mild [6]: 0
- SAR Hepatobiliary Disorders, Intensity Moderate [6]: 0
- SAR Hepatobiliary Disorders, Intensity Severe [6]: 1
- SAR Infections and infestations, # of Subjects [6]: 1
- SAR Infections and infestations, Frequency [6]: 0.5%
- SAR Infections and infestations, Intensity Mild [6]: 0
- SAR Infections and infestations, Intensity Moderate [6]: 0
- SAR Infections and infestations, Intensity Severe [6]: 1
- SAR Infective pulmonary exacerbation of cystic fibrosis, # of Subjects [6]: 1
- SAR Infective pulmonary exacerbation of cystic fibrosis, Frequency [6]: 0.5%
- SAR Infective pulmonary exacerbation of cystic fibrosis, Intensity Mild [6]: 0
- SAR Infective pulmonary exacerbation of cystic fibrosis, Intensity Moderate [6]: 0
- SAR Infective pulmonary exacerbation of cystic fibrosis, Intensity Severe [6]: 1
- IC50 (LTA4H epoxide hydrolase): 13 nM
